Test system: ornithine decarboxylase (ODC)
Assay: ODC assay: inhibition of TPA induction of ornithine decarboxylase activity
Type: in vivo
Details: concentration of the test compound which causes 60% inhibition in the ODC assay
Source text: A classic measure of retinoic acid activity involves measuring the effects of retinoic acid on ornithine decarboxylase. […] That reference discloses that ornithine decarboxylase (ODC) activity increased precedent to polyamine biosynthesis. It has been established elsewhere that increases in polyamine synthesis can be correlated or associated with cellular proliferation. Thus, if ODC activity could be inhibited, cell hyperproliferation could be modulated. Although all cases for ODC activity increases are unknown, it is known that 12-0-tetradecanoylphorbol-13-acetate (TPA) induces ODC activity. Retinoic acid inhibits this induction of ODC activity by TPA.

First: CCOC(=O)c1ccc(N=Nc2ccc3c(c2)C(OCOC)CCC3(C)C)cc1 (racemic) [Compound D6, (+/−) Ethyl 4-[(5,5-dimethyl-8-(methoxymethyloxy)-5,6,7,8-tetrahydronaphthalen-2-yl)azo]benzoate]
Second: CCOC(=O)c1ccc(/N=N/c2ccc3c(c2)/C(=N/OC)CCC3(C)C)cc1 [Compound D3, Ethyl 4-[(8(7H)-anti-(O-methyl oxime)-5,5-dimethyl-5,6-dihydronaphthalen-2-yl)azo]benzoate]
The IC60 of the first is lower: 1.9 nmols for the first, 8.4 nmols for the second.

Compared with CCOC(=O)c1ccc(OC(=O)c2ccc3c(c2)C(OC2CCCCO2)CCC3(C)C)cc1 (single isomer, unassigned) [Compound E56a, Ethyl 4-[5,6,7,8-tetrahydro-8(R or S)-(2′(R or S)-tetrahydropyranoxy)-5,5-dimethyl-2-napthoyloxy]benzoate], CCOC(=O)c1ccc(NC(=O)c2ccc3c(c2)C(OC2CCCCO2)CCC3(C)C)cc1 (single isomer, unassigned) [Compound E72b, Ethyl 4-[5,6,7,8-tetrahydro-8(R or S)-(2′(S or R)tetrahydropyranoxy)5,5-dimethylnaphthalene-2-yl)carboxamido]benzoate] is higher in IC60: 3.1 nmols for the first, 18 nmols for the second.

Compared with CCOC(=O)c1ccc(/C=C/c2ccc3c(c2)C(=O)CCC3(C)C)cc1 [Compound A2, Ethyl (E)-4-[2-(5,6-dihydro-5,5-dimethyl-naphthalen-8(7H)-one-2-yl)ethenyl]-benzoate], CCON=C1CCC(C)(C)c2ccc(/C=C/c3ccc(C(=O)OCC)cc3)cc21 [Compound A5, Ethyl (E)-4-[2-(5,5-dimethyl-5,6,-dihydro-8(7H)-anti-(O-ethyl oxime)-naphthalen-2-yl)ethenyl]-benzoate] is lower in IC60: 27 nmols for the first, 10.3 nmols for the second.

First: CCOC(=O)c1ccc(/C=C/c2ccc3c(c2)C(C2SCCCS2)CCC3(C)C)cc1 (stereo not drawn) [Compound A23, Ethyl (E)-4-[-2-(5,6,7,8-tetrahydro-5,5-dimethyl-8-(1,3-dithian-2-yl)naphthalen-2-yl)ethenyl] benzoate]
Second: CCOC(=O)c1ccc(/C=C/c2ccc3c(c2)C(=C(CC)CC)CCC3(C)C)cc1 [Compound A27, Ethyl (E)-4-[2-(7,8-dihydro-5,5-dimethyl-8(7H)-(pentyliden-3-yl)-naphthalen-2-yl)ethenyl]-benzoate]
The IC60 of the first is higher: 43.7 nmols for the first, 0.7 nmols for the second.

Going from CCOC(=O)/C=C(C)/C=C/C=C(\C)c1ccc2c(c1)C(OS(=O)(=O)C(F)(F)F)=CCC2(C)C [Compound C14, Ethyl 7-[4,4-dimethyl-3,4,-dihydronaphthalen-1-trifluoromethylsulfonyloxy-7-yl]-3,7-dimethyl-hept-2(E), 4(E), 6(E)trienoate] to CCOC(=O)/C=C(C)/C=C/C=C(\C)c1ccc2c(c1)C(c1cccs1)=CCC2(C)C [Compound C15, Ethyl 7-[4,4-dimethyl-3,4,-dihydronaphthalen-1-(2-thienyl)-7-yl]-3,7-dimethyl-hept-2(E), 4(E), 6(E)trienoate], the IC60 rises from 4 nmols to 14.5 nmols.

Going from CCON=C1CCC(C)(C)c2ccc(/C(C)=C/C=C/C(C)=C/C(=O)OCC)cc21 [Compound C22b, Ethyl 7-[4,4-dimethyl-3,4-dihydro-1(2H)-anti-(O-ethyl oxime)-naphth-7-yl]3,7-dimethyl-hepta-2(E),4(E),6(E)-trienoate] to CCOC(=O)c1ccc(OC(=O)c2ccc3c(c2)C(=C(C)C)CCC3(C)C)cc1 [Compound E15, Ethyl 4-[{(5,5-dimethyl-8(7H-(propyliden-2-yl)-5.6-dihydronaphthalen-2-yl)}carbonyl}oxy]benzoate], the IC60 rises from 10 nmols to 24.7 nmols.

Compared with CCOC(=O)c1ccc(NC(=O)c2ccc3c(c2)C(=C(C)C)CCC3(C)C)cc1 [Compound E16], CCOC(=O)c1ccc(NC(=O)c2ccc3c(c2)C(C(C)(C)C)=CCC3(C)C)cc1 [Compound E79, Ethyl 4-[(5 .5-dimethyl-5,6-dihydro-8-(1,1-dimethylethyl)-2-naphthalenyl)carboxamido]-benzoate] is lower in IC60: 88.4 nmols for the first, 5.3 nmols for the second.

Compound CCOC(=O)c1ccc(OC(=O)c2ccc3c(c2)C(S(=O)(=O)c2ccccc2)=CCC3(C)C)cc1 [Compound E24, Ethyl 4-[{(5,5-dimethyl-8-(phenylsulfonyl)-5,6dihydronaphthalen-2-yl)carbonyl}oxy]benzoate] has an IC60 of 8.3 nmols.

Same assay, conditions: concentration of the test compound which causes 80% inhibition in the ODC assay; cell marked (IC80)

In the case of CCOC(=O)c1ccc(/C=C/c2ccc3c(c2)C(Sc2ccccc2)=CCC3(C)C)cc1 [Compound A16, Ethyl (E)-4-[2-(5,6-dihydro-5,5-dimethyl-8-(phenylthio)-naphthalenyl)ethenyl] benzoate], the IC80 is reported as 4.3 (IC80) nmols.

Target: T1, RARα (Homo sapiens, UniProt P10276)
T1 sequence (P10276 1-462): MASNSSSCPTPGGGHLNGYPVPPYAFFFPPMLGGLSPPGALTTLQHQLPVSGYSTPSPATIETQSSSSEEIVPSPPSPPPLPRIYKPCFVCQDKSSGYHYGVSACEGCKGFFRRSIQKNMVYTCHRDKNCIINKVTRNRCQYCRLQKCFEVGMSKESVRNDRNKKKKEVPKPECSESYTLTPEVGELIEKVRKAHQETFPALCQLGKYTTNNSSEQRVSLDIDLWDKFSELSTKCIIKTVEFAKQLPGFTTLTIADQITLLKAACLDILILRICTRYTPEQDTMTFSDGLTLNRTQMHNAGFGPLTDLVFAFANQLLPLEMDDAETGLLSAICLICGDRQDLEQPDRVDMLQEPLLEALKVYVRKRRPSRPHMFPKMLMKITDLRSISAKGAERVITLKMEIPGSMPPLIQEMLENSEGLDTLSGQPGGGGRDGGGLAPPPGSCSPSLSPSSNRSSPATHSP
Assay: Ligand binding assay
Details: not given
Source text: (§1) Other assays described below, measure the ability of the compounds of the present invention to bind to, and/or activate various retinoid receptor subtypes. When in these assays a compound binds to a given receptor subtype and activates the transcription of a reporter gene through that subtype, then the compound is considered an agonist of that receptor subtype. […] In the below described assays the ability of the compounds to bind to RARα, RARβ, RARγ, RXRα, RXRβ and RXRΓ receptors, and the ability or inability of the compounds to activate transcription of a reporter gene through these receptor subtypes can be tested.
(§2) A holoreceptor transactivation assay and a ligand binding assay which measure the antagonist/agonist like activity of the compounds of the invention, or their ability to bind to the several retinoid receptor subtypes, respectively, are described in published PCT Application No. WO WO93/11755 (particularly on pages 30-33 and 37-41) published on Jun. 24, 1993, the specification of which is also incorporated herein by reference. A description of the holoreceptor transactivation assay is also provided below.
(§3) CV1 cells (5,000 cells/well) were transfected with an RAR reporter plasmid MTV-TREp-LUC (50 ng) along with one of the RAR expression vectors (10 ng) in an automated 96-well format by the calcium phosphate procedure of Heyman et al. Cell 68, 397-406, (1992). For RXRα and RXRγ transactivation assays, an RXR-responsive reporter plasmid CRBPII-tk-LUC (50 ng) along with the appropriate RXR expression vectors (10 ng) was used substantially as described by Heyman et al. above, and Allegretto et al. J. Biol. Chem. 268, 26625-26633. For RXRβ transactivation assays, an RXR-responsive reporter plasmid CPRE-tk-LUC ([…]) along with RXRβ expression vector ([…]) was used as described in above. These reporters contain DRI elements from human CRBPII and certain DRI elements from promoter, respectively. (see Mangelsdorf et al. The Retinoids: Biology, Chemistry and Medicine, pp 319-349, Raven Press Ltd., New York and Heyman et al., cited above) (1, 8). A β-galactosidase (50 ng) expression vector was used as an internal control in the transfections to normalize for variations in transfection efficiency. The cells were transfected in triplicate for 6 hours, followed by incubation with retinoids for 36 hours, and the extracts were assayed for luciferase and β-galactosidase activities. The detailed experimental procedure for holoreceptor transactivations has been described in Heyman et al. above, and Allegretto et al. cited above. The results obtained in this assay are expressed in EC50 numbers, as they are also in the chimeric receptor transactivation assay. The Heyman et al. Cell 68, 397-406, Allegretto et al. J. Biol. Chem. 268, 26625-26633, and Mangelsdorf et al. The Retinoids: Biology, Chemistry and Medicine, pp 319-349, Raven Press Ltd., New York, are expressly incorporated herein by reference. The results of ligand binding assay are expressed in Kd numbers. (See Cheng et al. Biochemical Pharmacology Vol. 22 pp 3099-3108, expressly incorporated herein by reference.)

Work on COCOC1CCC(C)(C)c2ccc(N=Nc3ccc(C(=O)O)cc3)cc21 (racemic) [Compound D7, (+/−) 4-[(5,5-Dimethyl-8-(methoxymethyloxy)-5,6,7,8-tetrahydronaphthalen-2-yl)azo]benzoic Acid] yielded a Kd of over 1000 nM.

Target: T2, RARβ (Homo sapiens, UniProt P10826)
T2 sequence (P10826 1-455): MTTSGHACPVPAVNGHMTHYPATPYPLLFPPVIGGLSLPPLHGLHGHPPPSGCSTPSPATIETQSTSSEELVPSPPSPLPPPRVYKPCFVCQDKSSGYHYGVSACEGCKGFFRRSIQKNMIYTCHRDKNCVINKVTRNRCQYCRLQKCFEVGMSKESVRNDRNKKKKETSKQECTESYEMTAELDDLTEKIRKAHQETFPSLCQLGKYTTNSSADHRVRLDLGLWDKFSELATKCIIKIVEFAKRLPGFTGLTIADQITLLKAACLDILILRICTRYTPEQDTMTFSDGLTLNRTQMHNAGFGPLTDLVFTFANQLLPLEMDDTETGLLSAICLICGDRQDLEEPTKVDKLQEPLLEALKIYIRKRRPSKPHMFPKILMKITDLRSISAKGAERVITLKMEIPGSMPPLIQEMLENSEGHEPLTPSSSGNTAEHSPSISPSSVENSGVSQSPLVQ
Assay: Ligand binding assay
Details: not given
Source text: as §1, §2, §3

Going from COCOC1CCC(C)(C)c2ccc(N=Nc3ccc(C(=O)O)cc3)cc21 (racemic) [Compound D7, (+/−) 4-[(5,5-Dimethyl-8-(methoxymethyloxy)-5,6,7,8-tetrahydronaphthalen-2-yl)azo]benzoic Acid] to CO/N=C1\CCC(C)(C)c2ccc(N=Nc3ccc(C(=O)O)cc3)cc21 [Compound D4, 4-[(8(7H)-Anti-(O-methyl oxime)-5,5-dimethyl-5,6-dihydronaphthalen-2-yl)azo]benzoic Acid], the Kd falls from 226 nM to 132 nM (1.7-fold). The second binds more tightly here.

Target: T3, RARγ (Homo sapiens, UniProt P13631)
T3 sequence (P13631 1-454): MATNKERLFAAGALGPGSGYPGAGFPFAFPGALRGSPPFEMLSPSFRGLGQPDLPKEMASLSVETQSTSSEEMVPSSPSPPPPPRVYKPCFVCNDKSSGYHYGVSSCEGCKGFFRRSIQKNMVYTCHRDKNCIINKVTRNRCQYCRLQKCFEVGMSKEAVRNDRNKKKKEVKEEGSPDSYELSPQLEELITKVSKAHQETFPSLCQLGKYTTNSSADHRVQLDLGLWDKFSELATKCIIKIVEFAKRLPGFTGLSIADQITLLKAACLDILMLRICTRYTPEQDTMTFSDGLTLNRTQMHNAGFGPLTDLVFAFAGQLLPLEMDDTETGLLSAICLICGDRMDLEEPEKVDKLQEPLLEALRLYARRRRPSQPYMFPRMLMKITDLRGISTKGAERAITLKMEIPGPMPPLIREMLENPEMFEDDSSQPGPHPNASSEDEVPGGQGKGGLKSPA
Assay: Ligand binding assay
Details: not given
Source text: as §1, §2, §3

Going from COCOC1CCC(C)(C)c2ccc(N=Nc3ccc(C(=O)O)cc3)cc21 (racemic) [Compound D7, (+/−) 4-[(5,5-Dimethyl-8-(methoxymethyloxy)-5,6,7,8-tetrahydronaphthalen-2-yl)azo]benzoic Acid] to CO/N=C1\CCC(C)(C)c2ccc(N=Nc3ccc(C(=O)O)cc3)cc21 [Compound D4, 4-[(8(7H)-Anti-(O-methyl oxime)-5,5-dimethyl-5,6-dihydronaphthalen-2-yl)azo]benzoic Acid], the Kd falls from over 1000 nM to 363 nM.
